Experimental data taken from patent publication US20250144115A1, “AMIDE COMPOUND AS POTASSIUM CHANNEL REGULATOR, AND PREPARATION THEREFOR AND USE THEREOF” (Shanghai Zhimeng Biopharma, Inc., priority 2022, published 2025).

Molecular target: T1, KCNQ2 potassium channels (CHO-KCNQ2 cells) (Homo sapiens, UniProt O43526)
T1 construct: expressed in transfected cells; host or cells: CHO cells stably expressing KCNQ2 (G418 selection in the culture medium)
Experiment: Potassium ion channel opener activity test (FDSS/μCELL detection, FluxOR thallium flux)
Assay type: cell-based
Conditions: 8 concentrations 0.045-100 μM; for EC50: 3 replicate wells; for Emax: ratio at 180 s, read-out: Maximum agonistic rate (%)
Protocol: Example A1 Potassium Ion Channel Opener Activity Test (FDSS/μ CELL Detection)
Cell preparation: CHO-KCNQ2 cells were cultured in a 175 cm^2 culture flask, and when the cell density grew to 60˜80%, the culture medium was removed and the cells were washed once with 7 mL PBS (Phosphate Buffered Saline), and then 3 mL of 0.25% Trypsin was added for digestion. After completion of digestion, 7 mL of culture medium (90% DMEM/F12+10% FBS+500 μg/mL G418) was added to neutralize, and centrifuged at 800 rpm for 3 min; the supernatant was aspirated, then 5 mL of culture medium was added to resuspend the cells, and the cells were counted.
Cell spreading: according to the cell counting results, the density was adjusted to 3×10^4 cells/well. After standing at room temperature for 30 minutes, the cells were placed in a CO2 incubator at 37° C. overnight, and incubated for 16-18 hours to reach a cell density of about 80%.
Fluorescent dye incubation: Cell culture solution was discarded, 80 μL/well of loading buffer was added and the cells were incubated for 60 minutes at room temperature and protected from light.
Compound incubation: Loading buffer was discarded, 80 μL/well of prepared compound solution was added, and the cells were incubated for 20 min at room temperature and protected from light.
Fluorescence data acquisition: Real-time fluorescence signal recording was performed using an FDSS/μCELL instrument with an excitation wavelength of 480 nm and an emission wavelength of 540 nm, and the signal was recorded once per second. 10 seconds of the baseline was recorded, then 20 μL/well of stimulation buffer was added, and the recording was continued until the end of 180 seconds.
20 mM stock solution of compound in DMSO was prepared, 10 μL of 20 mM compound stock solution was taken into 20 μL of DMSO solution, and a 3-fold serial dilution was performed to form 8 intermediate concentrations; then the intermediate concentrations of the compounds were taken respectively into test buffer, and a 200-fold dilution was performed to obtain the final concentration to be tested, and 80 μL was taken and added to the assay plate.
The highest test concentration was 100 μM, and there was a total of 8 concentrations, i.e., 100, 33.33, 11.11, 3.70, 1.23, 0.41, 0.137, 0.045 μM, respectively, with 3 replicate wells for each concentration.
The experimental data were analyzed by Excel 2007, GraphPad Prism 5.0 software, and the ratio of 180 s was counted to calculate the agonistic effect. The agonistic effect of the compound was calculated by the following equation:
• Environment: Temperature ˜25° C. • Reagent: FluxOR™ detection kit (Invitrogen, Cat #F0017) • The experimental data in the report must meet the following criteria: Z′ Factor>0.5 2. Results: See Table 1 for details, wherein a smaller EC50 indicates a higher activity of the corresponding compound.

T1 sequence (O43526 whole entry): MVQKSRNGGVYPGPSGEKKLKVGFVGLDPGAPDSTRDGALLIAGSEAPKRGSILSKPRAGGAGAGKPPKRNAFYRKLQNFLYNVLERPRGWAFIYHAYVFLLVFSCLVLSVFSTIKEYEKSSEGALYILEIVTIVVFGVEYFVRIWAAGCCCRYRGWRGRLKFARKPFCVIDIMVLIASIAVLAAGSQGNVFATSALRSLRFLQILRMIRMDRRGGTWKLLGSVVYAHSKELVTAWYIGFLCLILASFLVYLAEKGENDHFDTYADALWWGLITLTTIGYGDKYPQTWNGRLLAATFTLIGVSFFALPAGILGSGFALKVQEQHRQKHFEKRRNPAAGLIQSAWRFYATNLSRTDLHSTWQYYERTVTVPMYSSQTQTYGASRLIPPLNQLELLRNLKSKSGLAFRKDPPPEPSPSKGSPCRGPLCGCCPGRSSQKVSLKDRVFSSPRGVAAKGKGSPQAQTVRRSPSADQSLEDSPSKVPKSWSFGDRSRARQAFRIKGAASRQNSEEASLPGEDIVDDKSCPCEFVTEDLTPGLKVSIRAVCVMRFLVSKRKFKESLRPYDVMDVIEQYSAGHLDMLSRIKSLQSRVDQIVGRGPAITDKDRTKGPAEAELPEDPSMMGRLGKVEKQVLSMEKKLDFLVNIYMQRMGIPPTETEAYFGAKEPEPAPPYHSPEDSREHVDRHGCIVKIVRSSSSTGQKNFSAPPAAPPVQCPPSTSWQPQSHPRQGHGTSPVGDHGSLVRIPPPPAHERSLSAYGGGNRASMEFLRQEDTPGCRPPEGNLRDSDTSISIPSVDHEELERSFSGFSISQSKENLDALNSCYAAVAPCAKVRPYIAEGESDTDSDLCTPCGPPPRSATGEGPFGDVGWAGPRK

Structure (SMILES) | EC50 | Emax
Cc1cc(N2CCc3cc(C(F)(F)F)ccc3C2)cc(C)c1NC(=O)CC1(C)CC1 [Compound 3001] | 86 nM | 45.6%
Cc1cc(N2CCCCc3cc(C(F)(F)F)ccc32)cc(C)c1NC(=O)CC1(C)CC1 [Compound 3002] | 580 nM | 28.1%
Cc1cc(N2CCCn3cccc3C2)cc(C)c1NC(=O)CC1(C)CC1 [Compound 3010] | 3700 nM | 35.3%
Cc1cc(N2CCn3cccc3C2)cc(C)c1NC(=O)CC1(C)CC1 [Compound 3006] | 270 nM | 34.9%
Cc1ccc2c(c1)OCCCN2c1cc(C)c(NC(=O)CC2(C)CC2)c(C)c1 [Compound 3009] | 71 nM | 36.1%
Cc1cc(N2CCOc3cc(C(F)(F)F)ccc3C2)cc(C)c1NC(=O)CC1(C)CC1 [Compound 3003] | 18 nM | 39.6%
Cc1cc(N2CCc3sc(F)cc3C2)cc(C)c1NC(=O)CC1(C)CC1 [Compound 3005] | 110 nM | 46.7%
Cc1cc(N2CCOc3cc(F)ccc3C2)cc(C)c1NC(=O)CC1(C)CC1 [Compound 3008] | 17 nM | 40.9%
Cc1cc(N2CCCOc3cc(C(F)(F)F)ccc32)cc(C)c1NC(=O)CC1(C)CC1 [Compound 3004] | 580 nM | 17.7%
Cc1cc(N2CCSc3ccccc3C2)cc(C)c1NC(=O)CC1(C)CC1 [Compound 3011] | 4.3 nM | 49.4%
Cc1ccc2c(c1)CCCCN2c1cc(C)c(NC(=O)CC2(C)CC2)c(C)c1 [Compound 3007] | 30 nM | 41.5%
